Measurements taken from US11116760B2 (Gilead Sciences, Inc., priority 2018, dated 2021).

Molecular target: α4β7 integrin (Homo sapiens (Human), UniProt P13612+P26010)
Experiment: α4β7 Integrin Cell Capture Assay
Format: cell-based
[1] = Table 2, capture of α4β7 expressing RPM18866 cells on MadCAM-1 extracellular domain-coated plate
[2] = Table 1, capture of α4β7 expressing RPM18866 cells on MadCAM-1 extracellular domain-coated plate
[3] = RPMI8866 cells captured on MadCAM-1 extracellular domain-coated plate

α4β7 integrin, sequence (P13612 34-1032): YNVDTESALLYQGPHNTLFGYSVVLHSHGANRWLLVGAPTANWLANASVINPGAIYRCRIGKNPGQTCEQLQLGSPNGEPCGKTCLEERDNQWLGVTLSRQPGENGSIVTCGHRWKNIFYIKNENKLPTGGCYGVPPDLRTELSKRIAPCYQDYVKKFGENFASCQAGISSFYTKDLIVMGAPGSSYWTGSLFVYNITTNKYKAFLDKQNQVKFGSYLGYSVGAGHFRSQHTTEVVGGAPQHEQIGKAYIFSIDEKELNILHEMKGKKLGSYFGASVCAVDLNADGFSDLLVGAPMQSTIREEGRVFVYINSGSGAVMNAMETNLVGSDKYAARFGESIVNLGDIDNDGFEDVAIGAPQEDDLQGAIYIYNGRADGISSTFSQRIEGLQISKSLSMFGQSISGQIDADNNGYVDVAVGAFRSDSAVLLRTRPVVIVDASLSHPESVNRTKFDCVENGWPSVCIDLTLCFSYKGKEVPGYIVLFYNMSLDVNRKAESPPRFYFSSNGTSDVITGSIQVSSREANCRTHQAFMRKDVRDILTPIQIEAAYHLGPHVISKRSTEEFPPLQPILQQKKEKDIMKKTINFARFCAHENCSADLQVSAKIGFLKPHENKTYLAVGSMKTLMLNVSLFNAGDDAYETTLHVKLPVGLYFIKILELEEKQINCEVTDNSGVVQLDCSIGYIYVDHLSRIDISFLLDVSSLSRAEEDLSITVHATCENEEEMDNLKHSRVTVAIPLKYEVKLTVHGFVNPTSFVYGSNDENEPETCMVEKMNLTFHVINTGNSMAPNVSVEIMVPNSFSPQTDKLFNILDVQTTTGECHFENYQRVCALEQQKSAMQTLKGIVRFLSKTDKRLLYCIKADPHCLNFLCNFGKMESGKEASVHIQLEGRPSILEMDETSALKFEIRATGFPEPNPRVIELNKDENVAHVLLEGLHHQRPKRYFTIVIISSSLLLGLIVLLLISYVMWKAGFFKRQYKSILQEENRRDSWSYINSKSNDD
α4β7 integrin, sequence (P26010 20-798): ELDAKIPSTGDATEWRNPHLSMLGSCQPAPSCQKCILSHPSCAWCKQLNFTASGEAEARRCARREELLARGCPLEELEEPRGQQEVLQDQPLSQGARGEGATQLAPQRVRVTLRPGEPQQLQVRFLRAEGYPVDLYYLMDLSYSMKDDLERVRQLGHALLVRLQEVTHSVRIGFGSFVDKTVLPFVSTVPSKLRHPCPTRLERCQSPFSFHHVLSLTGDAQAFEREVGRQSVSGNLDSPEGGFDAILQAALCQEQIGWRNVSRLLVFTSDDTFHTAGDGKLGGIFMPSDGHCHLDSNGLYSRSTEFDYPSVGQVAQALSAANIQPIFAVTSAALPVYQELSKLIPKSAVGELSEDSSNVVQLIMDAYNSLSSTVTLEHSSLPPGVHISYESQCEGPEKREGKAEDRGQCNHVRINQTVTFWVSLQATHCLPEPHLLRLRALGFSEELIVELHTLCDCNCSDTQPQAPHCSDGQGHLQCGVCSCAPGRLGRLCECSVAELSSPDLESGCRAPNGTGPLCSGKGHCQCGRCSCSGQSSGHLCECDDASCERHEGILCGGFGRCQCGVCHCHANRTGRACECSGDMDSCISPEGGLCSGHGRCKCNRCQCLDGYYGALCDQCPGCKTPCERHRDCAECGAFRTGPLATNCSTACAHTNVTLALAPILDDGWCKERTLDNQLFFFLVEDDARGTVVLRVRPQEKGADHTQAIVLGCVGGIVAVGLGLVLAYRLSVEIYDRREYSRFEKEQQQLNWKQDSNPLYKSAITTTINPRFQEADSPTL

Row | EC50 [1] | EC50 [2] | EC50 [3] | Compound
1 | 7.7 nM |  |  | CC[C@@H](Nc1cc(F)c(C(=O)N[C@@H](Cc2ccc(-c3cn(C)c(=O)cc3C(F)(F)F)c3ncccc23)C(=O)O)c(F)c1)C(F)(F)F [Example 296]
2 |  | 0.7 nM |  | Cc1cc(C(F)(F)F)c(-c2ccc(C[C@H](NC(=O)c3c(F)cc(N4CCCC[C@@H]4C(F)(F)F)cc3F)C(=O)O)c3cccnc23)c(=O)n1C [Example 129, (S)-2-(2,6-difluoro-4-((R)-2-(trifluoromethyl)piperidin-1-yl)benzamido)-3-(8-(1,6-dimethyl-2-oxo-4-(trifluoromethyl)-1,2-dihydropyridin-3-yl)quinolin-5-yl)propanoic acid]
3 |  |  | 0.116 nM | Cc1cc(N2CCOC[C@@H]2C(F)(F)F)cc(F)c1C(=O)N[C@@H](Cc1ccc(-n2c(=O)c3cc(F)ncc3n(C)c2=O)c2ncccc12)C(=O)O [Example 420]
4 |  |  | 0.248 nM | CC[C@@H](Nc1cc(F)c(C(=O)N[C@@H](Cc2ccc(-c3nc(C)c(C)n(C)c3=O)c3ncccc23)C(=O)O)c(F)c1F)C(F)(F)F [Example 456]
5 | 4.7 nM |  |  | Cc1c(N)cc(-c2ccc(C[C@H](NC(=O)c3c(F)cc(N4CCOC[C@@H]4C(F)(F)F)cc3F)C(=O)O)c3cccnc23)c(=O)n1C [Example 273]
6 |  | 15 nM |  | C[C@@H](N(C)c1cc(F)c(C(=O)N[C@@H](Cc2ccc(-c3ccc(C#N)cc3Cl)c3ncccc23)C(=O)O)c(F)c1)C(F)(F)F [Example 87, (S)-3-(8-(2-chloro-4-cyanophenyl)quinolin-5-yl)-2-(2,6-difluoro-4-(methyl((R)-1,1,1-trifluoropropan-2-yl)amino)benzamido)propanoic acid]
7 |  | 4.2 nM |  | CC[C@H](C)Nc1cc(F)c(C(=O)N[C@@H](Cc2ccc(-c3c(C(F)(F)F)cc(C)n(C)c3=O)c3ncccc23)C(=O)O)c(F)c1 [Example 134, (S)-2-(4-(((S)-sec-butyl)amino)-2,6-difluorobenzamido)-3-(8-(1,6-dimethyl-2-oxo-4-(trifluoromethyl)-1,2-dihydropyridin-3-yl)quinolin-5-yl)propanoic acid]
8 |  |  | 0.115 nM | Cc1cc(N2CCOC[C@@H]2C(F)(F)F)cc(F)c1C(=O)N[C@@H](Cc1ccc(-c2nc(C)c(C)n(C)c2=O)c2ncccc12)C(=O)O [Example 477]
9 |  |  | 1.19 nM | CC[C@@H](Nc1cc(F)c(C(=O)N[C@@H](Cc2ccc(-c3c(C(F)(F)F)n(C)cc(C)c3=O)c3ncccc23)C(=O)O)c(F)c1)C(F)(F)F [Example 479]
10 | 0.6 nM |  |  | Cc1c(-c2ccc(C[C@H](NC(=O)c3c(F)cc(N[C@H](C)C(F)(F)F)cc3F)C(=O)O)c3cccnc23)c(=O)n(C)c(=O)n1C [Example 340]
11 | 23.7 nM |  |  | N#Cc1ccc(-c2ccc(C[C@H](NC(=O)c3c(F)cc(NCC(F)(F)F)cc3F)C(=O)O)c3cccnc23)c(Cl)c1 [Example 332]
12 |  |  | 0.092 nM | Cc1cc(N2CCOC[C@@H]2C(F)(F)F)cc(F)c1C(=O)N[C@@H](Cc1ccc(-c2c(Cl)cc(C)n(C)c2=O)c2ncccc12)C(=O)O [Example 449]
13 |  | 0.2 nM |  | CC[C@@H](Nc1cc(F)c(C(=O)N[C@@H](Cc2ccc(-c3c(OC)c4ccccc4n(C)c3=O)c3ncccc23)C(=O)O)c(F)c1)C(F)(F)F [Example 122, (S)-2-(2,6-difluoro-4-(((R)-1,1,1-trifluorobutan-2-yl)amino)benzamido)-3-(4-methoxy-1-methyl-2-oxo-1,2-dihydro-[3,8′-biquinolin]-5′-yl)propanoic acid]
14 |  | 0.3 nM |  | Cc1cc(C(F)(F)F)c(-c2ccc(C[C@H](NC(=O)c3c(F)cc(N[C@H](C)C(F)(F)F)cc3F)C(=O)O)c3cccnc23)c(=O)n1C [Example 128, (S)-2-(2,6-difluoro-4-(((R)-1,1,1-trifluoropropan-2-yl)amino)benzamido)-3-(8-(1,6-dimethyl-2-oxo-4-(trifluoromethyl)-1,2-dihydropyridin-3-yl)quinolin-5-yl)propanoic acid]
15 | 0.3 nM |  |  | Cc1cc(N2CCOC[C@@H]2C(F)(F)F)cc(Cl)c1C(=O)N[C@@H](Cc1ccc(-c2c(C(F)(F)F)cc(C)n(C)c2=O)c2ncccc12)C(=O)O [Example 160]
16 |  |  | 0.394 nM | CN(C)c1ccc2c(c1)c(=O)n(-c1ccc(C[C@H](NC(=O)c3c(F)cc(N4CCOC[C@@H]4C(F)(F)F)cc3F)C(=O)O)c3cccnc13)c(=O)n2C [Example 478]
17 |  |  | 0.08 nM | Cn1c(=O)n(-c2ccc(C[C@H](NC(=O)c3c(F)cc(N4CCOC[C@@H]4C(F)(F)F)cc3F)C(=O)O)c3cccnc23)c(=O)c2ccc(F)cc21 [Example 423]

Row | EC50 [1] | EC50 [2] | EC50 [3] | Compound
18 |  | 6.7 nM |  | N#Cc1cc(Cl)c(-c2ccc(C[C@H](NC(=O)c3c(Cl)cccc3Cl)C(=O)O)c3cccnc23)c(Cl)c1 [Example 4, (S)-3-(8-(2,6-dichloro-4-cyanophenyl)quinolin-5-yl)-2-(2,6-dichlorobenzamido)propanoic acid]
19 | 0.6 nM |  |  | CCCN(c1cc(F)c(C(=O)N[C@@H](Cc2ccc(-c3c(C(F)(F)F)cc(C)n(C)c3=O)c3ncccc23)C(=O)O)c(F)c1)[C@H](CC)C(F)(F)F [Example 339]
20 |  | 11.3 nM |  | N#Cc1ccc(-c2ccc(C[C@H](NC(=O)c3c(F)cc(N[C@H](C4CC4)C(F)(F)F)cc3F)C(=O)O)c3cccnc23)c(Cl)c1 [Example 90]
21 |  | 1.2 nM |  | CC[C@@H](Nc1cc(F)c(C(=O)N[C@@H](Cc2ccc(-c3cc(Cl)c(C)n(C)c3=O)c3ncccc23)C(=O)O)c(F)c1)C(F)(F)F [Example 116, (S)-3-(8-(5-chloro-1,6-dimethyl-2-oxo-1,2-dihydropyridin-3-yl)quinolin-5-yl)-2-(2,6-difluoro-4-(((R)-1,1,1-trifluorobutan-2-yl)amino)benzamido)propanoic acid]
22 | 2.6 nM |  |  | Cc1c(-c2ccc(C[C@H](NC(=O)c3c(F)cc(N4CCS(=O)(=O)[C@H](C)C4)cc3F)C(=O)O)c3cccnc23)c(=O)n(C)c(=O)n1C [Example 237]
23 |  |  | 0.297 nM | Cc1cc(C(F)(F)F)c(-c2ccc(C[C@H](NC(=O)c3c(F)cc(N4C[C@H]5C[C@@H]4CO5)cc3F)C(=O)O)c3cccnc23)c(=O)n1C [Example 480]
24 |  | 1.4 nM |  | Cn1cc(C(F)(F)F)cc(-c2ccc(C[C@H](NC(=O)c3c(F)cc(N4CCOC[C@@H]4C(F)(F)F)cc3F)C(=O)O)c3cccnc23)c1=O [Example 98, (S)-2-(2,6-difluoro-4-((R)-3-(trifluoromethyl)morpholino)benzamido)-3-(8-(1-methyl-2-oxo-5-(trifluoromethyl)-1,2-dihydropyridin-3-yl)quinolin-5-yl)propanoic acid]
25 |  |  | 0.714 nM | Cc1cc(N2CCOC[C@@H]2C(F)(F)F)cc(F)c1C(=O)N[C@@H](Cc1ccc(-c2nc(C)c(C)c(C)n2)c2ncccc12)C(=O)O [Example 443]
26 |  |  | 0.205 nM | Cc1cc(C(F)(F)F)c(-c2ccc(C[C@H](NC(=O)c3c(F)cc(N4CCOC[C@@H]4C(F)(F)F)cc3C3CC3)C(=O)O)c3cccnc23)c(=O)n1C [Example 463]
27 | 1.5 nM |  |  | CC[C@@H](Nc1cc(F)c(C(=O)N[C@@H](Cc2ccc(-c3c(C)c(Cl)cn(C)c3=O)c3ncccc23)C(=O)O)c(F)c1)C(F)(F)F [Example 200]
28 | 1.1 nM |  |  | Cc1cc(C(F)(F)F)c(-c2ccc(C[C@H](NC(=O)c3c(F)cc(N4CCO[C@@H](C)[C@H]4C(F)(F)F)cc3F)C(=O)O)c3cccnc23)c(=O)n1C [Example 227]
29 |  |  | 0.093 nM | Cc1cc(N2CCOC[C@@H]2C(F)(F)F)cc(F)c1C(=O)N[C@@H](Cc1ccc(-c2c(C(F)(F)F)cc(C)n(C)c2=O)c2ncccc12)C(=O)O (atropisomer, axis not shown) [Example 461]
30 |  | 16.9 nM |  | N#Cc1ccc(-c2ccc(C[C@H](NC(=O)c3c(Cl)cccc3Cl)C(=O)O)c3cc(F)cnc23)c(Cl)c1 [Example 30, (S)-3-(8-(2-chloro-4-cyanophenyl)-3-fluoroquinolin-5-yl)-2-(2,6-dichlorobenzamido)propanoic acid]
31 |  |  | 0.524 nM | Cc1cc(-c2nccn2CC(F)(F)F)cc(F)c1C(=O)N[C@@H](Cc1ccc(-c2c(C(F)(F)F)cc(C)n(C)c2=O)c2ncccc12)C(=O)O [Example 435]
32 | 9.4 nM |  |  | Cc1nc(-c2ccc(C[C@H](NC(=O)c3c(F)cc(N4CCOC[C@@H]4C(F)(F)F)cc3F)C(=O)O)c3cccnc23)ncc1F [Example 301]
33 | 82.2 nM |  |  | N#Cc1ccc(-c2ccc(C[C@H](NC(=O)c3c(F)cc(N4CCCCC4)cc3F)C(=O)O)c3cccnc23)c(Cl)c1 [Example 278]
34 |  |  | 1.31 nM | Cc1cc(C(F)(F)F)c(-c2ccc(C[C@H](NC(=O)c3c(F)cc(N4CCN(C)C[C@@H]4C(F)(F)F)cc3F)C(=O)O)c3cccnc23)c(=O)n1C (atropisomer, axis not shown) [Example 486]

Row | Compound | EC50 [1] | EC50 [2] | EC50 [3]
35 | CC[C@@H](Nc1cc(F)c(C(=O)N[C@@H](Cc2ccc(-c3c(C(F)(F)F)c4cc(N(C)C)ccc4n(C)c3=O)c3ncccc23)C(=O)O)c(F)c1)C(F)(F)F (atropisomer, axis not shown) [Example 168] | 0.5 nM |  | 
36 | COc1cc(Cl)c(Cl)cc1-c1ccc(C[C@H](NC(=O)c2c(F)cccc2F)C(=O)O)c2cccnc12 [Example 5, (S)-3-(8-(4,5-dichloro-2-methoxyphenyl)quinolin-5-yl)-2-(2,6-difluorobenzamido)propanoic acid] |  | 17.4 nM | 
37 | N#CCc1ccc(-c2ccc(C[C@H](NC(=O)c3c(F)cc(NS(=O)(=O)c4ccc(-c5ccnc(F)c5)cc4)cc3F)C(=O)O)c3cccnc23)c(Cl)c1 [Example 53, (S)-3-(8-(2-chloro-4-(cyanomethyl)phenyl)quinolin-5-yl)-2-(2,6-difluoro-4-((4-(2-fluoropyridin-4-yl)phenyl)sulfonamido)benzamido)propanoic acid] |  | 3 nM | 
38 | N#Cc1ccc(-c2ccc(C[C@H](NC(=O)c3c(F)cc(C(=O)NCC(F)(F)F)cc3F)C(=O)O)c3cccnc23)c(Cl)c1 [Example 28, (S)-3-(8-(2-chloro-4-cyanophenyl)quinolin-5-yl)-2-(2,6-difluoro-4-((2,2,2-trifluoroethyl)carbamoyl)benzamido)propanoic acid] |  | 33.5 nM | 
39 | Cc1cc(N2CCC2)c(-c2ccc(C[C@H](NC(=O)c3c(F)cc(N4CCOC[C@@H]4C(F)(F)F)cc3F)C(=O)O)c3cccnc23)c(=O)n1C [Example 103, (S)-3-(8-(4-(azetidin-1-yl)-1,6-dimethyl-2-oxo-1,2-dihydropyridin-3-yl)quinolin-5-yl)-2-(2,6-difluoro-4-((R)-3-(trifluoromethyl)morpholino)benzamido)propanoic acid] |  | 0.7 nM | 
